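Test compounds were applied to cells in 96-well plates for 48 hours at 5 doses. The concentration for 50% growth inhibition is given as GI50.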 Calls of active or inactive are those of the source. Cut-off read from the data, not from the text of the source: active = GI50 up to about 1.1 µM and inactive = higher.
How the values were obtained:
Test in all cases: DTP human tumour cell line panel, 48 h
LOX IMVI = test system: LOX IMVI
TK-10 = test system: TK-10
NCI/ADR-RES = test system: NCI/ADR-RES
T47D = test system: T47D
HCT-15 = test system: HCT-15
SF-295 = test system: SF-295
SF-539 = test system: SF-539
NCI-H460 = test system: NCI-H460
HL-60 = test system: HL-60
MCF7 = test system: MCF7
MDA-MB-435 = test system: MDA-MB-435
BT-549 = test system: BT-549
SW-620 = test system: SW-620
SN12C = test system: SN12C
OVCAR-3 = test system: OVCAR-3
RPMI-8226 = test system: RPMI-8226
U-251 = test system: U-251
MOLT-4 = test system: MOLT-4
RXF 393 = test system: RXF 393
OVCAR-4 = test system: OVCAR-4

Structure (SMILES)	GI50 (LOX IMVI)	GI50 (TK-10)	GI50 (NCI/ADR-RES)	GI50 (T47D)	GI50 (HCT-15) [µM]	GI50 (SF-295)	GI50 (SF-539)	GI50 (NCI-H460)	GI50 (HL-60)	GI50 (MCF7)	GI50 (MDA-MB-435)	GI50 (BT-549)	GI50 (SW-620)	GI50 (SN12C)	GI50 (OVCAR-3)	GI50 (RPMI-8226)	GI50 (U-251)	GI50 (MOLT-4)	GI50 (RXF 393)	GI50 (OVCAR-4)
COc1cccc(/C=C2\S/C(=N/Nc3nc(-c4ccc([N+](=O)[O-])cc4)cs3)NC2=O)c1O	3.25 µM (inactive)	20.7 µM (inactive)	17.9 µM (inactive)	4.66 µM (inactive)	15.6	16.9 µM (inactive)	7.82 µM (inactive)	12.6 µM (inactive)	4.45 µM (inactive)	16.6 µM (inactive)	19.5 µM (inactive)	4.23 µM (inactive)	19.3 µM (inactive)	22.1 µM (inactive)	15 µM (inactive)	10.4 µM (inactive)	1.8 µM (inactive)	22.1 µM (inactive)		
O=C(O)c1cc2ccccc2c(/N=N/c2ccc(S(=O)(=O)O)cc2)c1O		> 100 µM (inactive)	> 100 µM (inactive)	> 100 µM (inactive)	> 100	> 100 µM (inactive)	> 100 µM (inactive)	> 100 µM (inactive)	> 100 µM (inactive)	> 100 µM (inactive)	> 100 µM (inactive)	> 100 µM (inactive)	> 100 µM (inactive)	> 100 µM (inactive)	> 100 µM (inactive)	> 100 µM (inactive)	> 100 µM (inactive)	> 100 µM (inactive)	> 100 µM (inactive)	> 100 µM (inactive)
CCOC(=O)CCN1C(=O)c2c(NC(=O)C(=O)O)cccc2S1(=O)=O	> 100 µM (inactive)	> 100 µM (inactive)	> 100 µM (inactive)	> 100 µM (inactive)	> 100	> 100 µM (inactive)		> 100 µM (inactive)	> 100 µM (inactive)	> 100 µM (inactive)	> 100 µM (inactive)	> 100 µM (inactive)	> 100 µM (inactive)	> 100 µM (inactive)		> 100 µM (inactive)	> 100 µM (inactive)	> 100 µM (inactive)	> 100 µM (inactive)	> 100 µM (inactive)
CCCCOc1c(C(=O)O)cc(Br)cc1C(=O)O	> 100 µM (inactive)	> 100 µM (inactive)	> 100 µM (inactive)	> 100 µM (inactive)	> 100	> 100 µM (inactive)	> 100 µM (inactive)	> 100 µM (inactive)		> 100 µM (inactive)	> 100 µM (inactive)	> 100 µM (inactive)	> 100 µM (inactive)	> 100 µM (inactive)	> 100 µM (inactive)	> 100 µM (inactive)	> 100 µM (inactive)	> 100 µM (inactive)	> 100 µM (inactive)	> 100 µM (inactive)
CSC1NNC2(C(=O)N1)c1ccccc1-c1ccccc12 (stereo not given)	> 10 µM (inactive)	> 10 µM (inactive)	> 10 µM (inactive)	5.53 µM (inactive)	> 10	> 10 µM (inactive)	> 10 µM (inactive)	> 10 µM (inactive)	> 10 µM (inactive)	> 10 µM (inactive)	> 10 µM (inactive)	> 10 µM (inactive)	> 10 µM (inactive)	> 10 µM (inactive)		> 10 µM (inactive)		> 10 µM (inactive)	> 10 µM (inactive)	> 10 µM (inactive)
COC(=O)c1ccc(NC(=O)c2cc3c(cc2Br)OCO3)o1	> 100 µM (inactive)	> 100 µM (inactive)	59 µM (inactive)	90.6 µM (inactive)	94	> 100 µM (inactive)	> 100 µM (inactive)		> 100 µM (inactive)	> 100 µM (inactive)	32.7 µM (inactive)	39.5 µM (inactive)	> 100 µM (inactive)	> 100 µM (inactive)	> 100 µM (inactive)	> 100 µM (inactive)	> 100 µM (inactive)	95.7 µM (inactive)		> 100 µM (inactive)
O=C(O)C1CCCCC1C(=O)Nc1nc2ccccc2[nH]1 (stereo not given)	> 100 µM (inactive)	> 100 µM (inactive)	> 100 µM (inactive)	> 100 µM (inactive)	> 100	> 100 µM (inactive)	> 100 µM (inactive)	> 100 µM (inactive)		> 100 µM (inactive)	> 100 µM (inactive)	> 100 µM (inactive)	> 100 µM (inactive)	> 100 µM (inactive)	> 100 µM (inactive)	> 100 µM (inactive)	> 100 µM (inactive)	39.5 µM (inactive)	> 100 µM (inactive)	> 100 µM (inactive)
O=[N+]([O-])C(=C(Nc1ccccc1)Nc1ccccc1)C(Cl)=C(Cl)Cl	8.77 µM (inactive)	22.6 µM (inactive)	22.6 µM (inactive)	19.3 µM (inactive)	16.3	17.8 µM (inactive)	20.2 µM (inactive)	16.1 µM (inactive)		12 µM (inactive)	15.3 µM (inactive)	13.9 µM (inactive)	14.5 µM (inactive)	17.1 µM (inactive)	16.5 µM (inactive)	32.8 µM (inactive)	20.2 µM (inactive)		15.8 µM (inactive)	12.2 µM (inactive)
COc1cccc(CN(C(=O)/C=C\Sc2ccccc2)C(C)(C)C)c1	32.5 µM (inactive)	> 100 µM (inactive)	58.9 µM (inactive)	17.6 µM (inactive)	44.6	> 100 µM (inactive)	> 100 µM (inactive)		20.5 µM (inactive)	81.3 µM (inactive)	86.5 µM (inactive)	90.2 µM (inactive)	> 100 µM (inactive)	> 100 µM (inactive)	52.5 µM (inactive)		> 100 µM (inactive)	18.1 µM (inactive)		96.8 µM (inactive)
Nn1c(CCCCCCCCc2nnc(COc3ccccc3)n2N)nnc1COc1ccccc1	> 100 µM (inactive)	> 100 µM (inactive)	> 100 µM (inactive)	> 100 µM (inactive)	> 100	> 100 µM (inactive)		> 100 µM (inactive)	> 100 µM (inactive)	> 100 µM (inactive)	> 100 µM (inactive)	> 100 µM (inactive)	> 100 µM (inactive)	> 100 µM (inactive)		> 100 µM (inactive)	> 100 µM (inactive)	> 100 µM (inactive)	> 100 µM (inactive)	> 100 µM (inactive)
Cc1ccc(/N=N/C(=N\c2ccc(F)cc2)c2ccc(N(CCC#N)CCC#N)cc2)cc1		> 100 µM (inactive)	> 100 µM (inactive)	47.1 µM (inactive)	> 100	> 100 µM (inactive)	> 100 µM (inactive)	33.5 µM (inactive)		42.5 µM (inactive)	82.2 µM (inactive)	67.8 µM (inactive)	> 100 µM (inactive)	> 100 µM (inactive)	86.3 µM (inactive)	74.6 µM (inactive)	36.2 µM (inactive)	> 100 µM (inactive)	> 100 µM (inactive)	60.3 µM (inactive)
CCOC(=O)N1C(=S)C(C(=O)OC)(C(=O)OC)N=C1C	> 100 µM (inactive)	> 100 µM (inactive)	> 100 µM (inactive)	> 100 µM (inactive)	> 100	> 100 µM (inactive)		> 100 µM (inactive)	> 100 µM (inactive)	> 100 µM (inactive)	> 100 µM (inactive)	> 100 µM (inactive)	> 100 µM (inactive)	> 100 µM (inactive)	> 100 µM (inactive)	> 100 µM (inactive)	> 100 µM (inactive)	> 100 µM (inactive)	> 100 µM (inactive)	> 100 µM (inactive)
C/C(=N\NC(=O)Nc1ccccc1Cl)c1ccc(O)cc1	45.6 µM (inactive)	> 100 µM (inactive)	> 100 µM (inactive)	> 100 µM (inactive)	2.28	> 100 µM (inactive)	> 100 µM (inactive)	20.9 µM (inactive)	> 100 µM (inactive)	> 100 µM (inactive)	> 100 µM (inactive)	> 100 µM (inactive)	> 100 µM (inactive)	> 100 µM (inactive)	> 100 µM (inactive)	> 100 µM (inactive)	77.6 µM (inactive)	7.85 µM (inactive)		> 100 µM (inactive)
CN(C)CCCNC(=O)c1cc(NC(=O)c2cc(NC(=O)c3cc(NC(=O)CCCn4ccc(CO)c4CO)cn3C)cn2C)cn1C	4.28 µM (inactive)	24.8 µM (inactive)	> 100 µM (inactive)	6.85 µM (inactive)	> 100		3.44 µM (inactive)	12.5 µM (inactive)	3.1 µM (inactive)	3.27 µM (inactive)	11.1 µM (inactive)	2.64 µM (inactive)	20.6 µM (inactive)	6.18 µM (inactive)	10.9 µM (inactive)		2.77 µM (inactive)	4.74 µM (inactive)	1.85 µM (inactive)	19.5 µM (inactive)
c1ccc([P+](c2ccccc2)(c2ccccc2)c2ccc([P+](c3ccccc3)(c3ccccc3)c3ccccc3)c3ccccc23)cc1	30.5 µM (inactive)	> 100 µM (inactive)	> 100 µM (inactive)	54.8 µM (inactive)	> 100	> 100 µM (inactive)	63.7 µM (inactive)	61.4 µM (inactive)	41.6 µM (inactive)	47 µM (inactive)	84.3 µM (inactive)	51.2 µM (inactive)	> 100 µM (inactive)	> 100 µM (inactive)	46.3 µM (inactive)	57.1 µM (inactive)	35.7 µM (inactive)	> 100 µM (inactive)	> 100 µM (inactive)	
